Tests used:
PGC1α = assay: qRT-PCR for PGC1α in mouse heart tissue; format: in vivo
Description: (§1) FIGS. 3A-3E. […] FIG. 3A. […] FIG. 3B. […] FIG. 3C. […] FIG. 3E.
(§2) (FIG. 3B). […] (FIG. 3C).
Total RNA was isolated from cells and tissue (QiagenRNeasy Plus mini kit #74134) and analyzed using a NanoDrop (ThermoScientific). For qRT-PCR, one […]g of RNA was reverse transcribed using High Capacity cDNA Reverse Transcription Kit (Life Technologies #4368814). Two step qRT-PCR reactions contained 2% of the cDNA product. All reactions were performed in triplicate in a Roche 480 Light Cycler. Relative quantitation of PCR products used the ΔΔCt method relative to two validated reference genes (Tbp and Polr2a). Similar efficiencies were confirmed for all primers. All probes and primers were from Roche.

[1] = system: neonatal rat ventricular myocytes (NRVMs); assay: Mitochondrial membrane potential (JC-1) in NRVMs; format: cell-based
Description: FIG. 6A-6C. […] FIG. 6A. Mitochondrial membrane potential was assessed using JC-1 and fluorescent intensity was quantified using a plate reader. Red indicates intact mitochondrial membrane potential; green indicates compromised mitochondrial membrane potential (relative). Lysates were blotted for selected regulators of apoptosis and mitochondrial cell death effectors. Representative Western blots and summary findings from 3 independent experiments with at least 2 wells per condition in each experiment are shown.
JC-1 exists as a green fluorescent monomer at low mitochondrial membrane potential and a red fluorescent aggregate at high mitochondrial membrane potential. […] (FIGS. 6A-6C).
Mitochondrial membrane potential: Mitochondrial membrane potential in NRVMs was determined by 5, 5′, 6, 6′-tetrachloro-1, 1′, 3, 3′-tetraethylbenzimidazolylcarbocyanine iodide (JC-1) reduction. Cells were stained with JC-1 (Mitoprobe, Cayman Chemical Company) according to the manufacturer's protocol. In brief, serum-starved NRVMs were treated with DOX or vehicle in the presence or absence of dabuzalgron. […] Cells were washed once with medium then analyzed by plate reader (CLARIOstar, BMG LABTECH, Germany). JC-1 green fluorescence was excited at 488 nm and emission was detected using a 530±40 nm filter. JC-1 red fluorescence was excited at 488 nm and emission was detected using a 613±20 nm filter.

wild type (WT) mice = assay: Doxorubicin cardiotoxicity in wild type mice (survival, anatomy, conscious echocardiography, fibrosis)
From the text: FIGS. 2A-2B. […] On Day 7 the mice underwent echocardiography prior to sacrifice. FIG. 2A. Fractional shortening, a measure of contractile function, with representative M-mode echocardiogram images. […] FIG. 2B. Heart sections from some of these mice (i.e. wild type mice) stained with Masson Trichrome. Fibrosis (weighted average collagen content) was quantified using Aperio ImageScope software.
On Day 7, mice underwent echocardiography and were sacrificed by cervical dislocation after an overdose of isoflurane.
Conscious transthoracic echocardiography was performed on loosely restrained mice in the McAllister Heart Institute Animal Models Core using a VisualSonics Vevo 2100 ultrasound system (VisualSonics, Inc., Toronto, Ontario, Canada). Two-dimensional and M-mode echocardiography were performed in the parasternal long-axis view at the level of the papillary muscle. Left ventricular systolic function was assessed by fractional shortening (% FS=[(LVEDD−LVESD)/LVEDD]×100). Reported values represent the average of at least five cardiac cycles per mouse. Sonographers and investigators were blinded to mouse treatment condition during image acquisition and analysis.
Mice were heparinized and the heart was perfused with 10 mL PBS followed by 20 mL of 4% PFA/PBS through a 23 G butterfly needle, excised and placed in 4% PFA/PBS for 24 hours then transferred to 70% EtOH. Hearts were stained using standard methods in the UNC Histology Research Core. Fibrosis was analyzed in 3 Masson Trichrome (MT)-stained sections of 4 or 5 hearts from each treatment group. Slides were scanned using an Aperio ScanScope (Aperio Technologies, Vista, Calif.) and analyzed in Aperio ImageScope software. The Algorithm Positive Pixel Count v9 was used to measure collagen staining by MT using hue value (0.66) and hue width (0.1) The N positive/N total value was used to determine a weighted average collagen content (%) for each section.

[2] = system: cytochrome c, caspases, PARP; assay: Immunoblot for cytochrome c and downstream effectors of apoptosis in NRVMs; format: cell-based, rat; details: NRVM lysates, 4 hours
Description: FIG. 6A-6C. […] FIG. 6A. Mitochondrial membrane potential was assessed using JC-1 and fluorescent intensity was quantified using a plate reader. Red indicates intact mitochondrial membrane potential; green indicates compromised mitochondrial membrane potential (relative). Lysates were blotted for selected regulators of apoptosis and mitochondrial cell death effectors.
Homogenized tissue or cells were lysed in RIPA buffer with protease and phosphatase inhibitor (as above) and the lysate was passed through a Qiashredder. Equal protein abundance was assured with the Bradford assay (tissue lysates) or equal cell number (NRVMs). Samples were run for 2 hours at 140 v on ice on a Novex NuPAGE 4-12% Bis-Tris gel then transferred to a PVDF membrane at 90V for 1 hour on ice. Membranes were blocked in 5% milk at room temperature for 1 hour. We used Cell Signaling kit #9100 (pERK Thr202/Tyr204 1:250, ERK 1:1000, anti-rabbit HRP 1:1000). BID: (Santa Cruz, SC-11423); Cytochrome C: (Santa Cruz, SC-13560); AIF: (Santa Cruz, SC-13116); Caspase 8: (MBL international corporation, JM-3020-100); PARP: (Cell Signaling, #9532); Caspase 3: (Cell Signaling, #9665); Cleaved caspase 3: (Cell Signaling, #9664)

[3] = system: TBARS (lipid peroxidation) in mouse myocardium; assay: Thiobarbituric acid reactive substances (TBARS) in mouse heart tissue; format: in vivo
From the text: as §1, §2

[4] = hearts of mice treated with DOX
[5] = WT mice, dabuzalgron after DOX, Day 7
[6] = wild type mice, Dox 20 mg/kg i.p. + dabuzalgron 20 μg/kg/d gavage 7 days
[7] = wild type mice, Dox + 1240 20 μg/kg/d, Day 7 echocardiography

COc1cccc2c1C(=O)c1c(O)c3c(c(O)c1C2=O)C[C@@](O)(C(=O)CO)C[C@@H]3O[C@H]1C[C@H](N)[C@H](O)[C@H](C)O1 [DOX, doxorubicin]
PGC1α abundance (PGC1α; mouse heart in vivo, DOX): decreased | mitochondrial membrane potential (JC-1) ([1]; DOX for 4 hours): profound loss | burden of fibrosis, Masson Trichrome (wild type (WT) mice; mouse, in vivo): increased significantly | contractile function, conscious echocardiography (wild type (WT) mice; mouse, in vivo): decrease | 7-day survival (wild type (WT) mice; wild type mice, Dox 20 mg/kg i.p. + vehicle gavage 7 days): 78% | 7-day survival (wild type (WT) mice; wild type mice, Dox 20 mg/kg i.p. + vehicle gavage 7 days, listed as Dox): 78% | cleavage of caspases and PARP ([2]; doxorubicin 2 μM): caused cleavage | cytochrome c release ([2]; doxorubicin 2 μM): increased | TBARS abundance [3, 4]: more abundant

Cc1c(OCC2=NCCN2)ccc(Cl)c1NS(C)(=O)=O [dabuzalgron, N-[6-chloro-3-(4,5-dihydro-1H-imidazol-2-ylmethoxy)-2-methylphenyl]methanesulfonamide]
PGC1α abundance (PGC1α; [4]): increased | PGC1α abundance (PGC1α; hearts of mice treated with vehicle control): increased | effect on DOX-induced loss of mitochondrial membrane potential ([1]; DOX for 4 hours with dabuzalgron 10 μM): partially rescued | effect of dabuzalgron on DOX-induced decrease in survival (wild type (WT) mice; DOX 20 mg/kg i.p., dabuzalgron 10 μg/kg twice daily 7 days): not fully mitigated | effect on DOX-induced decrease in contractile function (wild type (WT) mice; WT mice, Day 7, dabuzalgron after DOX): prevented | fractional shortening after DOX (wild type (WT) mice; [5]): preserved | left ventricular end systolic volume after DOX (wild type (WT) mice; [5]): preserved | effect on DOX-induced increase in fibrosis (wild type (WT) mice; WT mouse heart sections, dabuzalgron after DOX): mitigated | echocardiographic parameters (wild type (WT) mice; mouse, in vivo): no effect | 7-day survival (wild type (WT) mice; [6]): 86% | Body Wt Day 7 (wild type (WT) mice; [6]): 24.3 ± 0.6 g | HW/BW (wild type (WT) mice; [6]): 0.41 ± 0.02 % | HW/TL (wild type (WT) mice; [6]): 5.5 ± 0.3 mg/mm | Heart Wt (wild type (WT) mice; [6]): 97 ± 5 mg | Lung Wt/TL (wild type (WT) mice; [6]): 7.7 ± 0.4 mg/mm | FS (Fractional Shortening) (wild type (WT) mice; [7]): 53 ± 1 % | HR (Heart Rate) (wild type (WT) mice; [7]): 667 ± 10 beats per minute | LVs vol (Left Ventricular systolic volume) (wild type (WT) mice; [7]): 5 µL | PWd (Posterior Wall, diastole) (wild type (WT) mice; [7]): 0.9 mm | effect on DOX-induced cytochrome c release and cleavage of caspases and PARP ([2]; doxorubicin 2 μM with Dabuzalgron 10 μM): abrogated | TBARS content ([3]; co-administration of dabuzalgron with DOX): normalized
